# Assay results: article PMC3071021 (Bioorganic & medicinal chemistry letters, 2011)
# What was measured:
# Jurkat cells = assay: Standard MTT assay, Jurkat cells; format: cell-based; settings: listed as CD4.M3
# [1] = test system: T6-17 (HER2/neu expressing cells); assay: Standard MTT assay, T6-17 cells; format: cell-based; settings: listed as CD4.M3
substance,measurement,setting,value
"[Cys^3-Cys^12]-HAbuFCYIGEVEDQCY-OH (disulfide) [CD4, reference compound]",% inhibition of cell growth,Jurkat cells,unaffected
same,% inhibition of cell growth,[1],unaffected
